Test results reported in US12114661B2, “Synergistically effective herbicide composition comprising metobromuron and clomazone” (BELCHIM CROP PROTECTION NV, priority 2018, dated 2024).

Experiments:
[1] = test system: Persicaria laphatipholium; experiment: Example 6 field trial, herbicidal effect, ready-to-use formulation; format: in vivo; settings: 25 DAA
Polygonum aviculare = experiment: Example 5 field trial, herbicidal effect, ready-to-use formulation; format: in vivo; settings: 38 DAA
Setaria viridis = experiment: Example 1 field trial, herbicidal effect, tank mixture; format: in vivo; settings: 28 DAA
Merculiaris annua [2] = experiment: Example 5 field trial, herbicidal effect, ready-to-use formulation; format: in vivo; settings: 41 DAA
Senecio vulgaris (SENVU) = experiment: Example 2 field trial, herbicidal effect, tank mixture; format: in vivo; settings: 42-56 DAA
[3] = test system: Merculiaris annua (MERAN); experiment: Example 3 field trial, herbicidal effect, tank mixture; format: in vivo; settings: 42-56 DAA
Persicaria maculosa = experiment: Example 4 field trial, herbicidal effect, ready-to-use formulation; format: in vivo; settings: 35 DAA
Amaranthus retroflexus [4] = experiment: Example 6 field trial, herbicidal effect, ready-to-use formulation; format: in vivo; settings: 18 DAA
Veronica persica = experiment: Example 4 field trial, herbicidal effect, ready-to-use formulation; format: in vivo; settings: 55 DAA
Hibiscus trionum = experiment: Example 1 field trial, herbicidal effect, tank mixture; format: in vivo; settings: 28 DAA
Convolvolus arvensis [5] = experiment: Example 4 field trial, herbicidal effect, ready-to-use formulation; format: in vivo; settings: 44 DAA
Cypurus = experiment: as above; format: in vivo; settings: 35 DAA
Amaranthus retroflexus [6] = experiment: Example 5 field trial, herbicidal effect, ready-to-use formulation; format: in vivo; settings: 25 DAA
Echinochloa crus galli = experiment: Example 4 field trial, herbicidal effect, ready-to-use formulation; format: in vivo; settings: 35 DAA
Solanum nigrum [7] = experiment: as above; format: in vivo; settings: 35 DAA
Panonicum ulmi = experiment: Example 6 field trial, herbicidal effect, ready-to-use formulation; format: in vivo; settings: CLZ 72 g a.c./ha; 42 DAA
[8] = test system: Chenopodium album (CHEAL); experiment: Example 3 field trial, herbicidal effect, tank mixture; format: in vivo; settings: 42-56 DAA
Urtica urens = experiment: Example 4 field trial, herbicidal effect, ready-to-use formulation; format: in vivo; settings: 22 DAA
Echinochloa = experiment: Example 1 field trial, herbicidal effect, tank mixture; format: in vivo; settings: 29 DAA
Solanum physalifolium = experiment: Example 5 field trial, herbicidal effect, ready-to-use formulation; format: in vivo; settings: 38 DAA
Convolvolus arvensis [9] = experiment: Example 1 field trial, herbicidal effect, tank mixture; format: in vivo; settings: 28 DAA
Amaranthus retroflexus [10] = experiment: as above; format: in vivo; settings: 49 DAA
Chenopodium album = experiment: Example 5 field trial, herbicidal effect, ready-to-use formulation; format: in vivo; settings: 41 DAA
Merculiaris annua [11] = experiment: Example 6 field trial, herbicidal effect, ready-to-use formulation; format: in vivo; settings: 18 DAA
Galium aparine = experiment: Example 5 field trial, herbicidal effect, ready-to-use formulation; format: in vivo; settings: 25 DAA
[12] = test system: Chenopodium album (CHEAL); experiment: Example 2 field trial, herbicidal effect, tank mixture; format: in vivo; settings: 42-56 DAA
Persicaria maculate = experiment: Example 5 field trial, herbicidal effect, ready-to-use formulation; format: in vivo; settings: 28 DAA
Solanum nigrum [13] = experiment: Example 6 field trial, herbicidal effect, ready-to-use formulation; format: in vivo; settings: 18 DAA
Veronica sp. (VERSS) = experiment: Example 3 field trial, herbicidal effect, tank mixture; format: in vivo; settings: 42-56 DAA
[14] = Example 6 field trial, herbicidal effect, ready-to-use formulation; format: in vivo, Panonicum ulmi; settings: MTB 1200 g a.c./ha; 42 DAA

CC1(C)CON(Cc2ccccc2Cl)C1=O [CLZ, 2-(2-chlorophenyl)methyl-4,4-dimethyl-3-isoxazolidinone]
h.e. (herbicidal effect) ([1]; CLZ 72 g a.c./ha): 34% | h.e. (herbicidal effect) (Polygonum aviculare; CLZ 90 g a.c./ha): 78% | h.e. (herbicidal effect) (Setaria viridis; CLZ 72 g a.c./ha): 86% | h.e. (herbicidal effect) (Merculiaris annua [2]; CLZ 90 g a.c./ha): 50% | CLZ h.e. (Senecio vulgaris (SENVU); CLZ 45 g a.c./ha): 5% | CLZ h.e. (Senecio vulgaris (SENVU); CLZ 67.5 g a.c./ha): 40% | CLZ h.e. (Senecio vulgaris (SENVU); CLZ 90 g a.c./ha): 39% | CLZ h.e. ([3]; CLZ 54 g a.c./ha): 43.3% | CLZ h.e. ([3]; CLZ 72 g a.c./ha): 50% | CLZ h.e. ([3]; CLZ 90 g a.c./ha): 23.3% | h.e. (herbicidal effect) (Persicaria maculosa; CLZ 36 g a.c./ha): 28% | h.e. (herbicidal effect) (Amaranthus retroflexus [4]; CLZ 72 g a.c./ha): 77% | h.e. (herbicidal effect) (Veronica persica; CLZ 36 g a.c./ha): 0% | h.e. (herbicidal effect) (Hibiscus trionum; CLZ 72 g a.c./ha): 79% | h.e. (herbicidal effect) (Convolvolus arvensis [5]; CLZ 36 g a.c./ha): 30% | h.e. (herbicidal effect) (Cypurus; CLZ 36 g a.c./ha): 67% | h.e. (herbicidal effect) (Amaranthus retroflexus [6]; CLZ 90 g a.c./ha): 10% | h.e. (herbicidal effect) (Echinochloa crus galli; CLZ 36 g a.c./ha): 63% | h.e. (herbicidal effect) (Solanum nigrum [7]; CLZ 36 g a.c./ha): 52% | h.e. (herbicidal effect) (Panonicum ulmi): 0% | CLZ h.e. ([8]; CLZ 54 g a.c./ha): 46.7% | CLZ h.e. ([8]; CLZ 72 g a.c./ha): 56.7% | CLZ h.e. ([8]; CLZ 90 g a.c./ha): 63.3% | h.e. (herbicidal effect) (Urtica urens; CLZ 36 g a.c./ha): 0% | h.e. (herbicidal effect) (Echinochloa; CLZ 72 g a.c./ha): 57% | h.e. (herbicidal effect) (Solanum physalifolium; CLZ 90 g a.c./ha): 61% | h.e. (herbicidal effect) (Convolvolus arvensis [9]; CLZ 72 g a.c./ha): 46% | h.e. (herbicidal effect) (Amaranthus retroflexus [10]; CLZ 72 g a.c./ha): 10% | h.e. (herbicidal effect) (Chenopodium album; CLZ 90 g a.c./ha): 28% | h.e. (herbicidal effect) (Merculiaris annua [11]; CLZ 72 g a.c./ha): 60% | h.e. (herbicidal effect) (Galium aparine; CLZ 90 g a.c./ha): 33% | CLZ h.e. ([12]; CLZ 45 g a.c./ha): 6% | CLZ h.e. ([12]; CLZ 67.5 g a.c./ha): 43% | CLZ h.e. ([12]; CLZ 90 g a.c./ha): 53% | h.e. (herbicidal effect) (Persicaria maculate; CLZ 90 g a.c./ha): 80% | h.e. (herbicidal effect) (Solanum nigrum [13]; CLZ 72 g a.c./ha): 66% | CLZ h.e. (Veronica sp. (VERSS); CLZ 54 g a.c./ha): 43.3% | CLZ h.e. (Veronica sp. (VERSS); CLZ 72 g a.c./ha): 60% | CLZ h.e. (Veronica sp. (VERSS); CLZ 90 g a.c./ha): 16.7%

CON(C)C(=O)Nc1ccc(Br)cc1 [MTB, 3-(4-bromophenyl)-1-methoxy-1-methylurea]
h.e. (herbicidal effect) ([1]; MTB 1200 g a.c./ha): 21% | h.e. (herbicidal effect) (Polygonum aviculare; MTB 1000 g a.c./ha): 66% | h.e. (herbicidal effect) (Setaria viridis; MTB 1200 g a.c./ha): 72% | h.e. (herbicidal effect) (Merculiaris annua [2]; MTB 1000 g a.c./ha): 49% | MTB h.e. (Senecio vulgaris (SENVU); MTB 500 g a.c./ha): 18% | MTB h.e. (Senecio vulgaris (SENVU); MTB 1000 g a.c./ha): 34% | MTB h.e. (Senecio vulgaris (SENVU); MTB 1500 g a.c./ha): 35% | MTB h.e. ([3]; MTB 600 g a.c./ha): 10% | MTB h.e. ([3]; MTB 1200 g a.c./ha): 78.3% | MTB h.e. ([3]; MTB 1800 g a.c./ha): 91% | h.e. (herbicidal effect) (Persicaria maculosa; MTB 400 g a.c./ha): 79% | h.e. (herbicidal effect) (Amaranthus retroflexus [4]; MTB 1200 g a.c./ha): 43% | h.e. (herbicidal effect) (Veronica persica; MTB 400 g a.c./ha): 25% | h.e. (herbicidal effect) (Hibiscus trionum; MTB 1200 g a.c./ha): 81% | h.e. (herbicidal effect) (Convolvolus arvensis [5]; MTB 400 g a.c./ha): 18% | h.e. (herbicidal effect) (Cypurus; MTB 400 g a.c./ha): 50% | h.e. (herbicidal effect) (Amaranthus retroflexus [6]; MTB 1000 g a.c./ha): 70% | h.e. (herbicidal effect) (Echinochloa crus galli; MTB 400 g a.c./ha): 68% | h.e. (herbicidal effect) (Solanum nigrum [7]; MTB 400 g a.c./ha): 76% | h.e. (herbicidal effect) [14]: 89% | MTB h.e. ([8]; MTB 600 g a.c./ha): 69.3% | MTB h.e. ([8]; MTB 1200 g a.c./ha): 93% | MTB h.e. ([8]; MTB 1800 g a.c./ha): 98.3% | h.e. (herbicidal effect) (Urtica urens; MTB 400 g a.c./ha): 37% | h.e. (herbicidal effect) (Echinochloa; MTB 1200 g a.c./ha): 35% | h.e. (herbicidal effect) (Solanum physalifolium; MTB 1000 g a.c./ha): 65% | h.e. (herbicidal effect) (Convolvolus arvensis [9]; MTB 1200 g a.c./ha): 83% | h.e. (herbicidal effect) (Amaranthus retroflexus [10]; MTB 1200 g a.c./ha): 50% | h.e. (herbicidal effect) (Chenopodium album; MTB 1000 g a.c./ha): 75% | h.e. (herbicidal effect) (Merculiaris annua [11]; MTB 1200 g a.c./ha): 40% | h.e. (herbicidal effect) (Galium aparine; MTB 1000 g a.c./ha): 28% | MTB h.e. ([12]; MTB 500 g a.c./ha): 61% | MTB h.e. ([12]; MTB 1000 g a.c./ha): 69% | MTB h.e. ([12]; MTB 1500 g a.c./ha): 79% | h.e. (herbicidal effect) (Persicaria maculate; MTB 1000 g a.c./ha): 43% | h.e. (herbicidal effect) (Solanum nigrum [13]; MTB 1200 g a.c./ha): 31% | MTB h.e. (Veronica sp. (VERSS); MTB 600 g a.c./ha): 20% | MTB h.e. (Veronica sp. (VERSS); MTB 1200 g a.c./ha): 35% | MTB h.e. (Veronica sp. (VERSS); MTB 1800 g a.c./ha): 97%
